In US4265885A, “Anthracyclines containing branched-chain amino-deoxy sugars” (Farmitalia Carlo Erba S.p.A., priority 1978, dated 1981):
Converted amounts (≈) assume the structure as drawn. Read-outs that look alike come from different tables or passages of the source.

Assays:
P 388 leukemia = test: Activity against P 388 leukemia in mice (survival); assay type: in vivo; conditions: as hydrochloride
Procedure: (§1) The new anthracycline glycosides described in the invention, display antitumor activity. The compounds have been tested against HeLa cells "in vitro" (time of exposure to the drugs: 24 hours) and on P 388 leukemia in mice in comparison with daunorubicin and doxorubicin. The results of the "in vitro" tests, shown in Table I are reported as ID50 (Inhibiting Dose 50% in ng/ml).
(§2) The antitumor activity was tested "in vivo" on P 388 leukemia in comparison with daunorubicin and doxorubicin.
(§3) ^(a) Mice were treated i.p. on day 1 after tumor cell inoculation.
^(b) Median survival time of treated mice, over median survival time

HeLa cells = test: Activity on HeLa cells viability in vitro; assay type: cell-based; conditions: Homo sapiens, read-out: ID50 (Inhibiting Dose 50%)
[1] = Toxic deaths in mice treated in the P 388 leukemia test; assay type: in vivo; conditions: as hydrochloride
Procedure: as §1, §2, §3

[2] = dose 4.4 mg/kg i.p. on day 1 after tumor cell inoculation
[3] = dose 6.6 mg/kg i.p. on day 1 after tumor cell inoculation
[4] = dose 10.0 mg/kg i.p. on day 1 after tumor cell inoculation
[5] = HeLa cells viability in vitro, time of exposure to the drugs: 24 hours, compounds as hydrochloride
[6] = dose 22.5 mg/kg i.p. on day 1 after tumor cell inoculation
[7] = dose 33.7 mg/kg i.p. on day 1 after tumor cell inoculation
[8] = dose 50.5 mg/kg i.p. on day 1 after tumor cell inoculation
[9] = dose 2.9 mg/kg i.p. on day 1 after tumor cell inoculation

| Compound | T/C (median survival time of treated mice over median survival time of control × 100) (P 388 leukemia; [2]) [%] | T/C (median survival time of treated mice over median survival time of control × 100) (P 388 leukemia; [3]) [%] | T/C (median survival time of treated mice over median survival time of control × 100) (P 388 leukemia; [4]) [%] | IC50 (HeLa cells; [5]) [µg/mL] | No. of toxic deaths/total [1, 2] | No. of toxic deaths/total [1, 3] | No. of toxic deaths/total [1, 4] | T/C (median survival time of treated mice over median survival time of control × 100) (P 388 leukemia; [6]) [%] | T/C (median survival time of treated mice over median survival time of control × 100) (P 388 leukemia; [7]) [%] | T/C (median survival time of treated mice over median survival time of control × 100) (P 388 leukemia; [8]) [%] | No. of toxic deaths/total [1, 6] | No. of toxic deaths/total [1, 7] | No. of toxic deaths/total [1, 8] | T/C (median survival time of treated mice over median survival time of control × 100) (P 388 leukemia; [9]) [%] | IC50 (HeLa cells; HeLa, 24 h) [µg/mL] | No. of toxic deaths/total [1, 9] |
| --- | --- | --- | --- | --- | --- | --- | --- | --- | --- | --- | --- | --- | --- | --- | --- | --- |
| COc1cccc2c1C(=O)c1c(O)c3c(c(O)c1C2=O)C[C@@](O)(C(=O)CO)C[C@@H]3O[C@H]1C[C@H](N)[C@](C)(OC)[C@H](C)O1 [4'-C-Methyl-4'-O-methyl-adriamycin] | 165 | 172 | 202 | 0.005 (≈ 0.00875 µM) | 0/10 | 0/10 | 2/17 | – | – | – | – | – | – | – | – | – |
| COc1cccc2c1C(=O)c1c(O)c3c(c(O)c1C2=O)C[C@@](O)(C(C)=O)C[C@@H]3O[C@H]1C[C@H](N)[C@](C)(OC)[C@H](C)O1 [4'-C-methyl-4'-O-methyl-daunorubicin (V), 4'-C-Methyl-4'-O-methyl-daunomycin] | – | 140 | – | 0.034 (≈ 0.0612 µM) | – | 0/18 | – | 155 | 150 | 137 | 0/20 | 0/26 | 1/5 | – | – | – |
| COc1cccc2c1C(=O)c1c(O)c3c(c(O)c1C2=O)C[C@@](O)(C(=O)CO)C[C@@H]3O[C@H]1C[C@H](N)[C@@](C)(OC)[C@H](C)O1 [4'-Epi-4'-C-methyl-4'-O-methyl-adriamycin] | 165 | 185 | 205 | 0.027 (≈ 0.0472 µM) | 0/8 | 0/8 | 0/8 | – | – | – | – | – | – | – | – | – |
| COc1cccc2c1C(=O)c1c(O)c3c(c(O)c1C2=O)C[C@@](O)(C(C)=O)C[C@@H]3O[C@H]1C[C@H](N)[C@@](C)(OC)[C@H](C)O1 [4'-Epi-4'-C-methyl-4'-O-methyl-daunomycin] | – | 140 | 147 | 0.0025 to 0.0034 (≈ 0.0045 to 0.00612 µM) | – | 0/8 | 0/8 | 150 | – | – | 0/8 | – | – | – | – | – |
| COc1cccc2c1C(=O)c1c(O)c3c(c(O)c1C2=O)C[C@@](O)(C(C)=O)C[C@@H]3O[C@H]1C[C@H](N)[C@H](O)[C@H](C)O1 [Daunorubicin, reference compound] | 161 | 156 | – | – | 3/48 | 28/48 | – | – | – | – | – | – | – | 163 | 0.01 (≈ 0.019 µM) | 0/48 |
| COc1cccc2c1C(=O)c1c(O)c3c(c(O)c1C2=O)C[C@@](O)(C(=O)CO)C[C@@H]3O[C@H]1C[C@H](N)[C@H](O)[C@H](C)O1 [Doxorubicin, reference compound] | 190 | 201 | 241 | – | 0/28 | 0/28 | 5/28 | – | – | – | – | – | – | – | 0.01 (≈ 0.0184 µM) | – |
